Test results: ChEMBL document CHEMBL5357021, “Novel Triazolopyridine-Based BRD4 Inhibitors as Potent HIV-1 Latency Reversing Agents” (ACS Med Chem Lett, 2024)
The source made the active and inactive calls. The calls are words filed in the database; no cut-off is given here.

Experiments:
[1] = test system: Human immunodeficiency virus 1; assay: Reversal of HIV-1 latency in CD4+ T-lymphoid J-Lat cells contains HIV-1 long terminal repeats (LTR)-Tat-GFP assessed as reactivation measured after 48 hrs by flow cytometry; assay type: functional, organism-based; settings: Human immunodeficiency virus 1, J-Lat 10.6, 48 h
[2] = Cytotoxicity against human non-infected J-Lat A10.6 cells assessed as cell death by CCK8 assay; assay type: toxicity, cell-based, J-Lat 10.6
[3] = molecular target: Bromodomain-containing protein 4 (Homo sapiens) (UniProt O60885); assay: Inhibition of BRD4 BD1 domain (unknown origin) at 1 uM by HTRF assay
[4] = test system: Human immunodeficiency virus 1; assay: Reversal of HIV-1 latency in ACH-2 cell line contains complete HIV-1 provirus assessed as reactivation by measuring HIV-1 p24 antigen expression 5 uM measured after 48 hrs by ELISA; assay type: functional, organism-based
[5] = molecular target: Bromodomain-containing protein 4 (Homo sapiens) (UniProt O60885); assay: Inhibition of BRD4 BD2 domain (unknown origin) at 1 uM by HTRF assay
[6] = molecular target: Bromodomain-containing protein 4 (Homo sapiens) (UniProt O60885); assay: Inhibition of BRD4 phosphorylation in human J-Lat A10.6 cells contains HIV-1 long terminal repeats (LTR)-Tat-GFP at 1 uM measured after 24 hrs by Western blotting analysis; assay type: cell-based; settings: J-Lat 10.6
[7] = molecular target: Bromodomain-containing protein 4 (Homo sapiens) (UniProt O60885); assay: Inhibition of BRD4 in human J-Lat 10.6 cells contains HIV-1 long terminal repeats (LTR)-Tat-GFP assessed as increased RNA pol II enrichment in LTR at 1 uM incubated for 6 hrs by ChiP assay; assay type: cell-based
[8] = molecular target: Bromodomain-containing protein 4 (Homo sapiens) (UniProt O60885); assay: Inhibition of BRD4 in human J-Lat 10.6 cells contains HIV-1 long terminal repeats (LTR)-Tat-GFP assessed as increased CDK9 enrichment in LTR at 1 uM incubated for 6 hrs by ChiP assay; assay type: cell-based
PBMC [9] = assay: Immune hyper-activation in human PBMC cells assessed as HLA-DR expression at 1 uM measured after 48 hrs by flow cytometry; assay type: toxicity, cell-based
PBMC [10] = assay: Immune hyper-activation in human PBMC cells assessed as CD25 expression at 1 uM measured after 48 hrs by flow cytometry; assay type: toxicity, cell-based
PBMC [11] = assay: Immune hyper-activation in human PBMC cells assessed as CD69 expression at 1 uM measured after 48 hrs by flow cytometry; assay type: toxicity, cell-based
[12] = test system: Human immunodeficiency virus 1; assay: Anti-HIV activity against HIV-1IIIB acute infected in human C8166 cells assessed as inhibition of p24 expression at 50 nM incubated for 72 hrs by ELISA assay in presence of N-(4-(2,4-difluorophenoxy)-3-(3-methyl-[1,2,4]triazolo[4,3-a]pyridin-6-yl)phenyl)-4-fluorobenzenesulfonamide; assay type: functional, organism-based
[13] = test system: Human immunodeficiency virus 1; assay: Anti-HIV activity against HIV-1IIIB acute infected in human C8166 cells assessed as inhibition of p24 expression at 25 nM incubated for 72 hrs by ELISA assay in presence of N-(4-(2,4-difluorophenoxy)-3-(3-methyl-[1,2,4]triazolo[4,3-a]pyridin-6-yl)phenyl)-4-fluorobenzenesulfonamide; assay type: functional, organism-based
C8166 = assay: Anti-HIV activity against HIV-1IIIB acute infected in human C8166 cells assessed as inhibition of p24 expression at 1 nM incubated for 72 hrs by ELISA assay in presence of N-(4-(2,4-difluorophenoxy)-3-(3-methyl-[1,2,4]triazolo[4,3-a]pyridin-6-yl)phenyl)-4-fluorobenzenesulfonamide; assay type: functional, cell-based

| SMILES | EC50 [1] | CC50 [2] | inhibition [3] | inhibition [5] | further results |
| --- | --- | --- | --- | --- | --- |
| Cc1nnc2ccc(-c3cc(NC(=O)C4CC4)ccc3Oc3ccc(F)cc3F)cn12 | > 50 µM | > 50 µM |  |  |  |
| CCC(=O)Nc1ccc(Oc2ccc(F)cc2F)c(-c2ccc3nnc(C)n3c2)c1 | 17.8 µM | > 50 µM |  |  |  |
| Cc1nnc2ccc(-c3cc(NS(=O)(=O)c4ccc(Br)cc4)ccc3Oc3ccc(F)cc3F)cn12 | > 50 µM | 43.9 µM |  |  |  |
| COC(=O)CCCCCCC(=O)Nc1ccc(Oc2ccc(F)cc2F)c(-c2ccc3nnc(C)n3c2)c1 | > 50 µM | > 50 µM |  |  |  |
| Cc1nnc2ccc(-c3cc(NS(=O)(=O)C4CC4)ccc3Oc3ccc(F)cc3F)cn12 | 4.3 µM | > 50 µM | Active | Active | Activity [4]: Active |
| Cc1ccc(S(=O)(=O)Nc2ccc(Oc3ccc(F)cc3F)c(-c3ccc4nnc(C)n4c3)c2)cc1 | > 50 µM | > 50 µM |  |  |  |
| Cc1csc2c1C(c1ccc(Cl)cc1)=N[C@@H](CC(=O)OC(C)(C)C)c1nncn1-2 (racemic) |  |  | Active | Active | inhibition [6]: Active; inhibition [7]: Active; inhibition [8]: Active; Activity (PBMC [9]): Non-Toxic; Activity [4]: Active; Activity (PBMC [10]): Non-Toxic; Activity (PBMC [11]): Non-Toxic |
| Cc1nnc(C(=O)NC(C)(C)c2nc(C(=O)NCc3ccc(F)cc3)c(O)c(=O)n2C)o1 |  |  |  |  | Activity [12]: Active |
| Cc1nnc2ccc(-c3cc(NS(=O)(=O)c4cccs4)ccc3Oc3ccc(Cl)cc3F)cn12 |  |  | Active | Active | Activity [4]: Active |
| COc1ccc(Br)cc1S(=O)(=O)Nc1ccc(Oc2ccc(F)cc2F)c(-c2ccc3nnc(C)n3c2)c1 | > 50 µM | > 50 µM |  |  |  |
| C=CS(=O)(=O)Nc1ccc(Oc2ccc(Cl)cc2F)c(-c2ccc3nnc(C)n3c2)c1 | 2 µM | 44.2 µM | Active | Active |  |
| CCS(=O)(=O)Nc1ccc(Oc2ccc(Cl)cc2F)c(-c2ccc3nnc(C)n3c2)c1 | 5.6 µM | 12.3 µM | Active | Active | Activity [4]: Active |
| CCCS(=O)(=O)Nc1ccc(Oc2ccc(F)cc2F)c(-c2ccc3nnc(C)n3c2)c1 | 5.4 µM | 44.7 µM | Active | Active |  |
| CC(C)CN(C[C@@H](O)[C@H](Cc1ccccc1)NC(=O)O[C@H]1CO[C@H]2OCC[C@H]21)S(=O)(=O)c1ccc(N)cc1 |  |  |  |  | Activity [13]: Active |
| CCS(=O)(=O)Nc1ccc(Oc2ccc(Cl)cc2Cl)c(-c2ccc3nnc(C)n3c2)c1 |  |  |  |  | Activity [4]: Active |
| Cc1nnc2ccc(-c3cc(NC(=O)CCCCCCC(=O)NO)ccc3Oc3ccc(Cl)cc3F)cn12 | 13.4 µM | 28.7 µM |  |  |  |
| O=C1Nc2ccc(Cl)cc2[C@@](C#CC2CC2)(C(F)(F)F)O1 |  |  |  |  | Activity (C8166): Active |
| Cc1nnc2ccc(-c3cc(NS(=O)(=O)c4cccs4)ccc3Oc3ccc(F)cc3F)cn12 | 6.6 µM | > 50 µM | Active | Active | Activity [4]: Active |
| Cc1nnc2ccc(-c3cc(NS(=O)(=O)c4ccc(Cl)cc4)ccc3Oc3ccc(F)cc3F)cn12 | 17.7 µM | > 50 µM | Active | Active |  |
| Cc1nnc2ccc(-c3cc(NS(=O)(=O)c4ccccc4)ccc3Oc3ccc(F)cc3F)cn12 | > 50 µM | > 50 µM | Active | Active |  |
| Cc1nnc2ccc(-c3cc(NC(=O)CCCCCCC(=O)NO)ccc3Oc3ccc(F)cc3F)cn12 | > 50 µM | > 50 µM |  |  |  |
| COc1ccc(S(=O)(=O)Nc2ccc(Oc3ccc(F)cc3F)c(-c3ccc4nnc(C)n4c3)c2)cc1 | 6.8 µM | > 50 µM | Active | Active |  |
| Cc1nnc2ccc(-c3cc(NS(=O)(=O)c4ccc(C(F)(F)F)cc4)ccc3Oc3ccc(F)cc3F)cn12 | > 50 µM | > 50 µM |  |  |  |
| CCS(=O)(=O)Nc1ccc(Oc2ccc(F)cc2F)c(-c2cn(C)c(=O)c3[nH]ccc23)c1 |  |  | Active | Active | Activity [4]: Active |
| Cc1nnc2ccc(-c3cc(NS(=O)(=O)c4cccc(Br)c4)ccc3Oc3ccc(F)cc3F)cn12 | 17.2 µM | > 50 µM | Active | Active |  |
| Cc1nnc2ccc(-c3cc(NS(=O)(=O)c4ccc([N+](=O)[O-])cc4)ccc3Oc3ccc(F)cc3F)cn12 | > 50 µM | > 50 µM |  |  |  |
| COC(=O)CCCCCCC(=O)Nc1ccc(Oc2ccc(Cl)cc2F)c(-c2ccc3nnc(C)n3c2)c1 | > 50 µM | > 50 µM |  |  |  |
| Cc1nnc2ccc(-c3cc(NC(=O)C(C)(C)C)ccc3Oc3ccc(Cl)cc3F)cn12 | > 50 µM | 32.9 µM |  |  |  |
| Cn1cc(-c2cc(NS(=O)(=O)c3ccc(F)cc3)ccc2Oc2ccc(Cl)cc2F)c2cc[nH]c2c1=O |  |  | Active | Active |  |
